Reference: patent publication US20160279142A1, “COMBINATIONS OF A PHOSPHOINOSITIDE 3-KINASE INHIBITOR COMPOUND AND A CDK4/6 INHIBITOR COMPOUND FOR THE TREATMENT OF CANCER” (Genentech, Inc., priority 2015, published 2016)
Entries after “also recorded” stand apart in the source; their conditions may differ.

Columns and labels:
[1] = test system: MCF-7 breast cancer xenografts; assay: In vivo tumor efficacy study, MCF-7 breast cancer xenografts; settings: MCF-7 xenograft mice; for CR: complete responses (100% tumor regression); for PR: partial responses (tumor regression >50% but <100%); for TTP 2X: time to progression 2X; for TTP 2X / AUC/Day % TGI (lower, upper): po qdx21; for AUC/Day % TGI (lower, upper): tumor growth inhibition vs vehicle; for Vol Day 21: tumor volume at day 21, po qdx21 (method b194 gives mm^3)
Description: The animals were fed ad libitum water (reverse osmosis, 1 ppm Cl) and NIH 31 Modified and Irradiated Lab Diet® consisting of 18.0% crude protein, 5.0% crude fat, and 5.0% crude fiber. The mice were housed on irradiated ALPHA-Dri® Bed-o'Cobs® Laboratory Animal Bedding in static microisolators on a 12-hour light cycle at 21-22° C. (70-72° F.) and 40-60% humidity. PRC specifically complies with the recommendations of the Guide for Care and Use of Laboratory Animals with respect to restraint, husbandry, surgical procedures, feed and fluid regulation, and veterinary care. The animal care and use program at PRC is accredited by the Association for Assessment and Accreditation of Laboratory Animal Care International (AAALAC), which assures compliance with accepted standards for the care and use of laboratory animals.
Xenografts were initiated with cancer cells, including breast cancer cell lines MCF-7 (Soule H. D. et al (1973) Jour. Nat. Cancer Inst. 51 (5): 1409-1416; Levenson A. S. et al (1997) Cancer Res. 57 (15): 3071-3078; LaCroix M. et al (2004) Breast Res. and Treatment 83 (3): 249-289) and MDA-MB-453 (Vranic S. et al (2011) Onc. Letters 2: 1131-1137; Hall R. E. et al (1994) Euro. Jour. Cancer 30(4):484-490). Cells were cultured in RPMI 1640 medium supplemented with 10% fetal bovine serum, 2 mM glutamine, 100 units/mL penicillin, […] streptomycin sulfate and 25 μg/mL gentamicin. The cells were harvested during exponential growth and resuspended in phosphate buffered saline (PBS) at a concentration of 5×10^6 or 10×10^6 cells/mL depending on the doubling time of the cell line. Tumor cells were implanted subcutaneously in the right flank, and tumor growth was monitored as the average size approached the target range of 100 to 150 mm3. Twenty-one days after tumor implantation, designated as Day 0 of the study, the mice were placed into four groups each consisting of ten mice with individual tumor volumes ranging from 75-172 mm3 and group mean tumor volumes from 120-121 mm3 (see Appendix A). Volume was calculated using the formula: […]
GDC-0032 was supplied as a dry powder in salt form, which contained 73% active agent, and was stored at room temperature protected from light. Drug doses were prepared weekly in 0.5% methylcellulose: 0.2% Tween 80 in deionized water (“Vehicle”) and stored at 4° C. The salt form containing 73% active agent was accounted for in the formulation of GDC-0032 doses. Doses of GDC-0032 were prepared on each day of dosing by diluting an aliquot of the stock with sterile saline (0.9% NaCl). All doses were formulated to deliver the stated mg/kg dosage in a volume of 0.2 mL per 20 grams of body weight (10 mL/kg).
All doses were scaled to the body weights of the individual animals and were provided by the route indicated in each of the figures.
Tumor volume was measured in 2 dimensions (length and width), using Ultra Cal IV calipers (Model 54 10 111; Fred V. Fowler Company), as follows: tumor volume (mm^3)=(length×width^2)×0.5 and analyzed using Excel version 11.2 (Microsoft Corporation). A linear mixed effect (LME) modeling approach was used to analyze the repeated measurement of tumor volumes from the same animals over time (Pinheiro, J. et al (2009); Tan, N. et al (2011) Clin. Cancer Res. 17(6):1394-1404). This approach addresses both repeated measurements and modest dropouts due to any non-treatment-related death of animals before study end. Cubic regression splines were used to fit a nonlinear profile to the time courses of log 2 tumor volume at each dose level. These nonlinear profiles were then related to dose within the mixed model. Tumor growth inhibition as a percentage of vehicle control (% TGI) was calculated as the percentage of the area under the fitted curve (AUC) for the respective dose group per day in relation to the vehicle, using the following formula: % TGI=100×(1−AUCdose/AUCveh). […]

[2] = test system: MCF7×2.3.ARO.LetR letrozole-resistant breast cancer cells (Letrozole-R1); assay: CellTiter-Glo cell viability, letrozole-resistant MCF7x2.3.ARO.LetR; assay type: cell-based; settings: letrozole-resistant MCF7 LetR (FIG. 1b, FIG. 4)
Description: (§1) Cell culture. MCF7 cell line was obtained from the American Type Culture Collection (ATCC, VA). The cells were tested and authenticated using gene expression and single nucleotide polymorphism genotyping arrays (Hoeflich K P, et al (2009) Clin Cancer Res, 15(14):4649-4664; Hu X, et al (2009) Mol Cancer Res, 7(4):511-522) and cultured in RPMI supplemented with 10% fetal bovine serum, 100 units/ml penicillin, 100 µg/ml streptomycin, 2 mM L-glutamine and NEAA at 37° C. under 5% CO2. Stable aromatase-expressing MCF7 cells (MCF7-ARO) were generated by transfection of a plasmid vector containing the full aromatase gene and a neomycin selection gene. The cells were maintained in androstenedione and all experiments were performed in the presence of androstenedione except where indicated
(§2) The CellTiter-Glo® Luminescent Cell Viability Assay is a homogeneous method to determine the number of viable cells in culture based on quantitation of the ATP present, which signals the presence of metabolically active cells. […]
(§3) The assay assesses the ability of compounds to enter cells and inhibit cell proliferation. The assay principle is based on the determination of the number of viable cells present by quantitating the ATP present in a homogenous assay where addition of the Cell Titer-Glo® reagent results in cell lysis and generation of a luminescent signal through the luciferase reaction. […]
Cell viability assays. […] After 4 days incubation, relative numbers of viable cells were estimated using CellTiter-Glo (Promega, Madison, Wis.) and total luminescence was measured on an Envision plate Reader (PerkinElmer, Foster City, Calif.). […]
Cell viability assays and combination assays: Cells were seeded at 1000-2000 cells/well in 384-well plates for 16 h. […] After 4 days, relative numbers of viable cells were measured by luminescence using Cell Titer-Glo® (Promega) according to the manufacturer's instructions and read on a Wallac Multilabel Reader® (PerkinElmer, Foster City). EC50 values were calculated using Prism® 4.0 software (GraphPad, San Diego). […]

[3] = test system: pAkt, pPRAS40, pS6RP, pRb, cleaved PARP in MDA-MB-453 tumors; assay: Protein levels (pharmacodynamic markers) in MDA-MB-453 tumors; assay type: in vivo, mice; settings: for levels of pRB (ratio pRb to tRb): GDC-0032 5 mg/kg, palbociclib 50 mg/kg, 1 hr and 4 hr (FIG. 9d)
Description: FIGS. 9a-d show ratios of protein levels of mice treated with vehicle, GDC-0032 at 5 mg/kg, palbociclib at 50 mg/kg, and the combination of GDC-0032 at 5 mg/kg+palbociclib at 50 mg/kg, measured at 1 hr and 4 hr.

[4] = test system: cyclin D1, cyclin E, phosphorylated Rb (Ser807/811) and cleaved PARP; assay: Western blot pathway signaling in MCF7-ARO parental and resistant lines; assay type: cell-based; settings: 24 hours of treatment (FIG. 2)
Description: Cells were treated for 24 hours with 20 nM GDC-0032 (Parental and Letrozole-R1) or 2.5 μM (Let-R1.GDC-0032-R) and/or 2.5 μM palbociclib.
Taselisib combines well with palbociclib in double-resistant MCF7-ARO cells (FIG. 1c). The effect on viability of taselisib and palbociclib as single agents is shown, respectively. The combination effect of the two drugs is indicated. Starting doses for taselisib were 80 nM for the parental and letrozole-R1 lines and 10 μM for […]. Palbociclib starting doses were 10 μM for all three lines (FIGS. 1a-c). Immunoblots from samples treated for 24 hours with 20 nM taselisib (Parental and Letrozole-R1) or 2.5 (Let-R1.taselisib-R). (D) Increased growth arrest is observed with combined PI3K and CDK4/6 inhibition. Immunoblots from samples treated for 24 hours with 20 nM taselisib (Parental and Letrozole-R1) or 2.5 μM (Let-R1. taselisib-R) and/or 2.5 μM palbociclib. Dotted lines for all viability data are indicative of CTG counts at the beginning of drug treatment. Error bars indicate standard deviation around the mean.

[5] = test system: MCF7×2.3.CMV.ARO.LetR letrozole-resistant breast cancer cells; assay: CellTiter-Glo cell viability, MCF7x2.3.CMV.ARO.LetR; assay type: cell-based; settings: dose titrations (FIG. 6)
Description: as §1, §2, §3

Row | SMILES | CR [1] | PR [1] | TTP 2X [1] | AUC/Day % TGI (lower, upper) [1] | Vol Day 21 [1] | cell viability (CellTiter-Glo) [2] | levels of pRB (ratio pRb to tRb) [3] | PI3K pathway signaling (immunoblot) [4] | cleaved PARP (immunoblot) [4] | cell viability (CellTiter-Glo) [5] | cell viability (CellTiter-Glo) ([2]; listed as taselisib) | levels of pAkt (ratio pAkt to tAkt) ([3]; 5 mg/kg, 1 hr and 4 hr (FIG. 9a)) | levels of pPRAS40 (ratio pPRAS40 to tPRAS40) ([3]; 5 mg/kg, 1 hr and 4 hr (FIG. 9b)) | levels of pS6RP (ratio pS6RP to tS6RP) ([3]; 5 mg/kg, 1 hr and 4 hr (FIG. 9c)) | cell death based on cleaved PARP ([3]; 5 mg/kg, 1 hr and 4 hr (FIG. 9e))
1 | CC(=O)c1c(C)c2cnc(Nc3ccc(N4CCNCC4)cn3)nc2n(C2CCCC2)c1=O [palbociclib, 6-acetyl-8-cyclopentyl-5-methyl-2-(5-(piperazin-1-yl)pyridin-2-ylamino)pyrido[2,3-d]pyrimidin-7(8H)-one, reference compound] | 0 | 0 | 8.5 | 39 (0, 63) % | 421 | more resistant | decreased | – | – | – | – | – | – | – | –
2 | Cc1nc(-c2cn3c(n2)-c2ccc(-c4cnn(C(C)(C)C(N)=O)c4)cc2OCC3)n(C(C)C)n1 [GDC-0032, 2-(4-(2-(1-isopropyl-3-methyl-1H-1,2,4-triazol-5-yl)-5,6-dihydrobenzo[f]imidazo[1,2-d][1,4]oxazepin-9-yl)-1H-pyrazol-1-yl)-2-methylpropanamide] | 0 | 0 | 9.5 | 49 (16, 71) % | 349 | potency remains; also recorded: equally sensitive | decreased | decreases | detected | potency remains | similarly sensitive | effectively decreased | effectively decreased | effectively decreased | induced cell death
